Data reported in patent US7964559B2, “MVL, an antiviral protein from a cyanobacterium” (The United States of America, as represented by the …, priority 2004, dated 2011).
Entries after “also recorded” stand apart in the source; their conditions may differ. Read-outs that look alike come from different tables or passages of the source.

Key:
[1] = target: T1, MVL (Microcystis viridis, UniProt Q9RHG4); assay type: binding; settings: for Binding to MVL: Table 1, MVL binding studies
[2] = target: T1, MVL; assay type: binding; settings: for Stoichiometry: carbohydrates per MVL monomer, 10 mM Tris pH 6.5; for ΔG: ΔG = −RT · lnKA, T = 298 K
[3] = target: T1, MVL; assay type: cell-based
[4] = test system: HIV-1 T-cell tropic (T-tropic) strain LAV; settings: read-out: IC50, inhibition of Env-mediated fusion
[5] = test system: HIV-1 macrophage tropic (M-tropic) strain SF162; settings: read-out: IC50, inhibition of Env-mediated fusion
[6] = test system: M-tropic virus SF162 and a T-tropic virus (LAV); assay: Single round HIV-infectivity assay; assay type: cell-based; settings: read-out: approximate IC50, HIV infectivity
[7] = excess carbohydrate, pH 6.85, 27° C.

## CC(=O)N[C@H]1[C@H](O[C@H]2[C@H](O)[C@@H](NC(C)=O)C(O)O[C@@H]2CO)O[C@H](CO)[C@@H](O)[C@@H]1O (stereo partly shown) [GlcNAcβ(1→4) GlcNAc, GlcNAcβ(1→4)GlcNAc]
[1]; [7]
  binding to MVL / change of 1H-15N correlation spectra of MVL: nor do they bind
[1]; excess carbohydrate, pH 6.85, 27° C., listed as GlcNAc2
  binding to MVL / change of 1H-15N correlation spectra of MVL: identical to that of free MVL

## CC(=O)N[C@H]1C(O)O[C@H](CO)[C@@H](O[C@@H]2O[C@H](CO)[C@@H](O)[C@H](O)[C@@H]2O)[C@@H]1O (stereo partly shown) [Manβ(1→4)GlcNAc]
[1]; pH 6.85
  binding to MVL / change of 1H-15N correlation spectra of MVL: nor do they bind

## CC(=O)N[C@H]1[C@H](O[C@H]2[C@H](O)[C@@H](NC(C)=O)C(O)O[C@@H]2CO)O[C@H](CO)[C@@H](O[C@@H]2O[C@H](CO[C@H]3O[C@H](CO)[C@@H](O)[C@H](O)[C@@H]3O)[C@@H](O)[C@H](O)[C@@H]2O)[C@@H]1O (stereo partly shown) [oligomannose-2A, Manα(1→6)Manβ(1→4)GlcNAcβ(1→4)GlcNAc]
[2]; 25° C., pH 6.5
  ΔH: -10.5 ± 0.04 kcal/mol
[2]; one site model, 25° C., listed as Man2A
  Stoichiometry: 2.04 ± 0.05
[2]; one site model, 25° C., listed as Man2GlcNAc2
  Stoichiometry: two
[2]
  ΔG: -7.4 ± 0.6 kcal/mol
[1]
  Binding to MVL: 3
[1]; [7]
  binding to MVL / change of 1H-15N correlation spectra of MVL: binds with high affinity

## CC(=O)N[C@H]1[C@H](O[C@H]2[C@H](O)[C@@H](NC(C)=O)C(O)O[C@@H]2CO)O[C@H](CO)[C@@H](O[C@@H]2O[C@H](CO[C@H]3O[C@H](CO[C@H]4O[C@H](CO)[C@@H](O)[C@H](O)[C@@H]4O)[C@@H](O)[C@H](O[C@H]4O[C@H](CO)[C@@H](O)[C@H](O)[C@@H]4O)[C@@H]3O)[C@@H](O)[C@H](O[C@H]3O[C@H](CO)[C@@H](O)[C@H](O)[C@@H]3O)[C@@H]2O)[C@@H]1O (stereo partly shown) [oligomannose-5, Man5GlcNAc2]
[1]
  Binding to MVL: 3

## Man6GlcNAc2 [oligomannose-6]
[2]; 25° C., pH 6.5
  ΔH: -20.8 ± 0.1 kcal/mol
[2]; one site model, 25° C., listed as Man6
  Stoichiometry: 2.06 ± 0.01
[2]; one site model, 25° C., listed as Man6GlcNAc2
  Stoichiometry: two
[2]; equilibrium association constant, one site model, 25° C., pH 6.5
  Ka: 4.5 (±0.3)×10^6 M^−1
[2]
  ΔG: -9.0 ± 0.6 kcal/mol
[1]; (2πΔδ)^−1 from chemical shift differences
  lifetime of the MVL:carbohydrate complex: > 16 ms
[1]
  Binding to MVL: 3
[1]; [7]
  binding to MVL / change of 1H-15N correlation spectra of MVL: dramatic changes

## Man9GlcNAc2 [oligomannose-9]
[1]
  Binding to MVL: 3
[3]; MVL 200 nM, 5-fold excess of carbohydrate
  effect of pretreatment of MVL on inhibition of fusion by MVL: partially reduced inhibition

## Manα (1→3)[Manα(1→6)]Manβ [Manα(1→3)[Manα(1→6)]Man]
[1]; pH 6.85
  binding to MVL / change of 1H-15N correlation spectra of MVL: identical to that of free MVL; also recorded: nor do they bind
[3]
  effect of pretreatment of MVL on inhibition of fusion by MVL: no effect

B1: MVL: 113 amino acid, 13 kDa carbohydrate binding protein (lectin) from Microcystis viridis NIES-102, SEQ ID NO: 3 (protein, listed as Microcystis viridis)
chain: ASYKVNIPAGPLWSNAEAQQVGPKIAAAHQGNFTGQWTTVVESAMSVVEVELQVENTGIHEFKTDVLAGPLWSNDEAQKLGPQIAASYGAEFTGQWRTIVEGVMSVIQIKYTF
[4]
  IC50: 30 ± 4 nM
[5]
  IC50: 37 ± 6 nM
[6]
  IC50: 30 to 50 nM
